Biological target: T1, human LPA1 (Homo sapiens, UniProt Q92633)
T1 construct: expressed in transfected cells; host or cells: CHO-K1
Assay: In vitro LPA1 functional antagonist assay (calcium mobilization, FLIPR)
Type: cell-based
Settings: CHO-K1 cells overexpressing human LPA1; Oleoyl LPA challenge; calcium mobilization on FLIPR Tetra
Method: In Vitro LPA1 Functional Antagonist Assay
CHO-K1 cells overexpressing human LPA1 were seeded in a total volume of 20 μL into black-walled, clear-bottom, Poly-D-lysine coated 384-well microplates and incubated at 37° C. for the appropriate time prior to testing. Assays were performed in 1× Dye Loading Buffer consisting of 1× Dye, 1× Additive A and 2.5 mM Probenecid in HBSS/20 mM Hepes. Probenicid was prepared fresh. Cells were loaded with dye prior to testing. Media was aspirated from cells and replaced with […] Dye Loading Buffer. Cells were incubated for 30-60 minutes at 37° C. After dye loading, cells were removed from the incubator and 10 μL 3× test compound was added. Cells were incubated for 30 minutes at room temperature in the dark to equilibrate plate temperature followed by Oleoyl LPA challenge at the 0.018 M. Compound antagonist activity was measured on a FLIPR Tetra (MDS). Calcium mobilization was monitored for 2 minutes and 10 μL Oleoyl LPA in HBSS/20 mM Hepes was added to the cells 5 seconds into the assay. Compound activity was analyzed using CBIS data analysis suite (ChemInnovation, CA). Percentage inhibition is calculated using the following formula:
% Inhibition=100%×(1−(mean RFU of test sample−mean RFU of vehicle control)/(mean RFU of LPA control−mean RFU of vehicle control)).

T1 sequence (Q92633 whole entry): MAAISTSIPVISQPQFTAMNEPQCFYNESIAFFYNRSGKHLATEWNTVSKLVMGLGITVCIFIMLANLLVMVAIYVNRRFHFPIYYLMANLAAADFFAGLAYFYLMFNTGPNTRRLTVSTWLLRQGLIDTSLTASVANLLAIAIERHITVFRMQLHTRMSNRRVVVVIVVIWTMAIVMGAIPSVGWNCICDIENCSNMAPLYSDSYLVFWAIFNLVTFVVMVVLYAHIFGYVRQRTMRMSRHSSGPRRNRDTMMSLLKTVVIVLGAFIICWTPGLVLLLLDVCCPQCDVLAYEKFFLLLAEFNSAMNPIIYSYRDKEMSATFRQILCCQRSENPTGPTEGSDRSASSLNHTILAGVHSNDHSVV

Compound | IC50 [nM]
COc1cc([C@@H](O)[C@H](Cn2cc3cccc(C(=O)O)c3n2)OC2CCCC2)ccc1Cl [Compound 126a, 2-((2S,3R)-3-(4-chloro-3-methoxyphenyl)-2-(cyclopentyloxy)-3-hydroxypropyl)-2H-indazole-7-carboxylic acid] | 64.8
COc1cc([C@@H](O)[C@H](Cn2cc3cccc(C(=O)O)c3n2)OC2CCCC2)cc(OC)c1C [Compound 108a, 2-((2S,3R)-2-(cyclopentyloxy)-3-(3,5-dimethoxy-4-methylphenyl)-3-hydroxypropyl)-2H-indazole-7-carboxylic acid] | 3.05
COc1cc([C@@H](O)[C@H](Cc2ccc(CC(=O)O)c(OC)n2)OCCc2ccccc2)cc(OC)c1C [Compound 130a, 2-(6-((2S,3R)-3-(3,5-dimethoxy-4-methylphenyl)-3-hydroxy-2-phenethoxypropyl)-2-methoxypyridin-3-yl)acetic acid] | 1190
COc1cc([C@@H](O)[C@H](Cn2cc3cccc(C(=O)O)c3n2)OC2CCCC2)ccc1F [Compound 139] | 1350
COc1cc([C@@H](O)[C@H](Cn2cc3cc(Cl)cc(C(=O)O)c3n2)OC2CCCC2)cc(OC)c1C [Compound 144] | 2.04
COc1cc([C@@H](O)[C@H](Cc2nc3cc(C(=O)O)ccc3[nH]2)OC2CCCC2)cc(OC)c1C [Compound 109a, 2-((2S,3R)-2-(cyclopentyloxy)-3-(3,5-dimethoxy-4-methylphenyl)-3-hydroxypropyl)-1H-benzo[d]imidazole-5-carboxylic acid] | > 10000
COc1cc([C@@H](O)[C@H](Cc2nc3cc(C(=O)O)ccc3[nH]2)OCC2CCC2)cc(OC)c1C [Compound 131a, 2-((2S,3R)-2-(cyclobutylmethoxy)-3-(3,5-dimethoxy-4-methylphenyl)-3-hydroxypropyl)-1H-benzo[d]imidazole-5-carboxylic acid] | > 10000

More lines, now with the values ahead:

IC50 [nM] | Compound
1540 | COC(=O)c1cn(C[C@H](OCCc2ccccc2)[C@@H](O)c2cc(OC)c(C)c(OC)c2)cc1CC(=O)O [Compound 132]
> 10000 | COc1cc([C@H](O)[C@H](Cn2cc3cccc(C(N)=O)c3n2)OC2CCCC2)ccc1F [Compound 135]
> 10000 | COc1cc([C@H](O)[C@H](Cn2cc3cccc(C(=O)O)c3n2)OC2CCCC2)ccc1F [Compound 138]
7.66 | CCOC(=O)c1cn(C[C@H](OC2CCCC2)[C@H](O)c2cc(OC)c(C)c(OC)c2)cc1CC(=O)O [Compound 143]
125 | COc1cc([C@@H](O)[C@H](Cc2nc3cc(C(=O)O)ccc3[nH]2)OC2Cc3ccccc3C2)cc(OC)c1C [Compound 114a, 2-((2S, 3R)-2-((2,3-dihydro-1H-inden-2-yl)oxy)-3-(3,5-dimethoxy-4-methylphenyl)-3-hydroxypropyl)-1H-benzo[d]imidazole-5-carboxylic acid]
3.69 | COc1cc([C@@H](O)[C@H](Cn2cc3cccc(C(=O)O)c3n2)OC2Cc3ccccc3C2)cc(OC)c1C [Compound 113a, 2-((2S, 3R)-2-((2,3-dihydro-1H-inden-2-yl)oxy)-3-(3,5-dimethoxy-4-methylphenyl)-3-hydroxypropyl)-2H-indazole-7-carboxylic acid]
1450 | COc1cc([C@@H](O)[C@H](Cc2nc(CC(=O)O)cs2)OCC2CCC2)cc(OC)c1C [Compound 122a]
49 | COc1cc([C@H](O)[C@H](Cn2cc3cccc(C(=O)O)c3n2)OCCc2ccccc2)cc(OC)c1C [Compound 105b, 2-((2S,3S)-3-(3,5-dimethoxy-4-methylphenyl)-3-hydroxy-2-phenethoxypropyl)-2H-indazole-7-carboxylic acid]
> 10000 | COc1cc([C@@H](O)[C@H](Cc2nc3c(C(=O)O)cccc3[nH]2)OC2CCCC2)cc(OC)c1C [Compound 142]
> 10000 | O=C(O)c1cccc2cn(C[C@H](OC3CCCC3)[C@@H](O)c3ccccc3)nc12 [Compound 137]

Reference: patent publication US20240018102A1, “COMPOUNDS AND COMPOSITIONS FOR TREATING CONDITIONS ASSOCIATED WITH LPA RECEPTOR ACTIVITY” (Lhotse Bio, Inc., priority 2020, published 2024)
